Laboratory results taken from patent US9409966B2, “Glucagon-like peptide-1 derivatives and their pharmaceutical use” (priority 2007, dated 2016).
*1 amine or outer side, *2 acyl side, *3 side chain or, on linkers, in order; H or OH if unused. Where a SMILES comes first, the peptide text is derived from it. Side-chain parts run from the residue outwards. [ ]: non-standard residue; d: D form. The star is where a group is joined. X1 = O=C(CCCCCCCCCCCCCCCc1nnn[nH]1)NS(=O)(=O)CCCC(=O)*; γGlu = O=C(O)[C@H](CCC(=O)[*:2])N[*:1]; 12Ado = NCCCCCCCCCCCC(=O)O; AEEA = NCCOCCOCC(=O)O; Aib = CC(C)(N)C(=O)O

How the values were obtained:
[1] = target: T1, human GLP-1 receptor (Homo sapiens, UniProt P43220); assay: Stimulation of cAMP formation in a cell line expressing the cloned human GLP-1 receptor; format: biochemical; details: cAMP production, purified plasma membranes from BHK467-12A (tk-ts13), AlphaScreen cAMP Assay Kit; read-out: Potency [EC50/nM]
T1 construct: expressed in transfected cells; host or cells: BHK467-12A (tk-ts13) baby hamster kidney cells; purified plasma membranes
Protocol: A stable transfected cell line has been prepared at NN A/S, Denmark, and a high expressing clone was selected for screening. The cells were grown at 5% CO2 in DMEM, 5% FCS, 1% Pen/Strep (Penicillin/Streptomycin) and 0.5 mg/ml of the selection marker G418.
Cells at approximate 80% confluence were washed 2× with PBS (Phosphate Buffered Saline) and harvested with Versene (aqueous solution of the tetrasodium salt of ethylenediaminetetraacetic acid), centrifuged 5 min at 1000 rpm and the supernatant removed. The additional steps were all made on ice. […] Suspension in Buffer 2, homogenization and centrifugation was repeated once and the membranes were resuspended in Buffer 2 and ready for further analysis or stored at −80° C.
The functional receptor assay was carried out by measuring the peptide induced cAMP production by The AlphaScreen Technology. […] The capture of cAMP is achieved by using a specific antibody conjugated to acceptor beads. Formed cAMP was counted and measured at a AlphaFusion Microplate Analyzer. The EC50 values were calculated using the Graph-Pad Prisme software (version 5).

[2] = target: human serum albumin (HSA) (Homo sapiens, UniProt P02768); assay: Albumin binding affinity, competition scintillation proximity assay (SPA)
Sequence of human serum albumin (HSA) (P02768 25-609): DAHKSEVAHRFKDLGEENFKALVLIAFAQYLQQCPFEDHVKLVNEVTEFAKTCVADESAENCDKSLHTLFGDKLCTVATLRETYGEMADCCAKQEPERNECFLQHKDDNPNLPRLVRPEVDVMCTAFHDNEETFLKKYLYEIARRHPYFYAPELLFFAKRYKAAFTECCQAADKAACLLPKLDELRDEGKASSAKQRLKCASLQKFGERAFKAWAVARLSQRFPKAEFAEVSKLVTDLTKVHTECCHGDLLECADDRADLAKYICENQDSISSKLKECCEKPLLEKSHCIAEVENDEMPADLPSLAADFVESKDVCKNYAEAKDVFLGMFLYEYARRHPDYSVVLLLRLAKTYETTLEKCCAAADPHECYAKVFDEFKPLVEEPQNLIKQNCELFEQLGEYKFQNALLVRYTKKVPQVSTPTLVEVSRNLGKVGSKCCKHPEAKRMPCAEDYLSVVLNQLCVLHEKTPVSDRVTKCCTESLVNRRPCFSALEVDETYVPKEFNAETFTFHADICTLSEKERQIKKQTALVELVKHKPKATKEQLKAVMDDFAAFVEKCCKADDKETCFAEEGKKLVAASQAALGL
Protocol: Streptavidin-SPA beads (GE Healthcare RPNQ0009) were incubated with biotinylated HSA for 5 hours. The beads were washed with buffer to remove unbound HSA. […] After 20 hours of gentle rocking at room temperature the plates were centrifuged and counted on a TopCounter.

T1 sequence (P43220 24-463): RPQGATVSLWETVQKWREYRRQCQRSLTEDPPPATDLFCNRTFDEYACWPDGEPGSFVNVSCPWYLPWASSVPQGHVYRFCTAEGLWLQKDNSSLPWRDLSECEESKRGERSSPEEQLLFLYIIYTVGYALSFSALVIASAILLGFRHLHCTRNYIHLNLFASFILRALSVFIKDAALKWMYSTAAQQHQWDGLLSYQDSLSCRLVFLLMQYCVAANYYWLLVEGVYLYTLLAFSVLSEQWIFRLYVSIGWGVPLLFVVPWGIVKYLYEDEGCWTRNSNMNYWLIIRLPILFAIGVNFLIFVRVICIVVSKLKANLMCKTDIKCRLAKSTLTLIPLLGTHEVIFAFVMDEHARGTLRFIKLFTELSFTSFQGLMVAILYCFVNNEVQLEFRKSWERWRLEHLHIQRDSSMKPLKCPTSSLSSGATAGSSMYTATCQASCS

Structure (SMILES)	EC50 [1]	EC50 [2]
CC[C@H](C)[C@H](NC(=O)[C@H](Cc1ccccc1)NC(=O)[C@H](CCC(=O)O)NC(=O)[C@H](CCCNC(=N)N)NC(=O)[C@H](C)NC(=O)[C@H](C)NC(=O)[C@H](CCC(N)=O)NC(=O)[C@H](CCC(=O)O)NC(=O)[C@H](CCC(=O)O)NC(=O)[C@H](CC(C)C)NC(=O)[C@H](Cc1ccc(O)cc1)NC(=O)[C@H](CO)NC(=O)[C@H](CO)NC(=O)[C@@H](NC(=O)[C@H](CC(=O)O)NC(=O)[C@H](CO)NC(=O)[C@@H](NC(=O)[C@H](Cc1ccccc1)NC(=O)[C@@H](NC(=O)CNC(=O)[C@H](CCC(=O)O)NC(=O)C(C)(C)NC(=O)[C@@H](N)Cc1c[nH]cn1)[C@@H](C)O)[C@@H](C)O)C(C)C)C(=O)N[C@@H](C)C(=O)N[C@@H](Cc1c[nH]c2ccccc12)C(=O)N[C@@H](CC(C)C)C(=O)N[C@H](C(=O)N[C@@H](CCCNC(=N)N)C(=O)NCC(=O)N[C@@H](CCCNC(=N)N)C(=O)N[C@@H](CCCCNC(=O)COCCOCCNC(=O)COCCOCCNC(=O)CC[C@H](NC(=O)[C@H]1CC[C@H](CNC(=O)CCCCCCCCCCCCCCCCCCC(=O)O)CC1)C(=O)O)C(N)=O)C(C)C [Example 7, N-epsilon37-[2-(2-{2-[2-(2-{2-[(S)-4-Carboxy-4-({trans-4-[(19-carboxy-nonadecanoylamino)methyl]cyclohexanecarbonyl}amino)butyrylamino]ethoxy}ethoxy)acetylamino]ethoxy}ethoxy)acetyl][Aib8,Glu22,Arg26,Arg34,Lys37]GLP-1-(7-37)amide]	0.58 nM	800 to 1500 nM
CC[C@H](C)[C@H](NC(=O)[C@H](Cc1ccccc1)NC(=O)[C@H](CCC(=O)O)NC(=O)[C@H](CCCNC(=N)N)NC(=O)[C@H](C)NC(=O)[C@H](C)NC(=O)[C@H](CCC(N)=O)NC(=O)[C@H](CCC(=O)O)NC(=O)[C@H](CCC(=O)O)NC(=O)[C@H](CC(C)C)NC(=O)[C@H](Cc1ccc(O)cc1)NC(=O)[C@H](CO)NC(=O)[C@H](CO)NC(=O)[C@@H](NC(=O)[C@H](CC(=O)O)NC(=O)[C@H](CO)NC(=O)[C@@H](NC(=O)[C@H](Cc1ccccc1)NC(=O)[C@@H](NC(=O)CNC(=O)[C@H](CCC(=O)O)NC(=O)[C@H](C)NC(=O)CCc1c[nH]cn1)[C@@H](C)O)[C@@H](C)O)C(C)C)C(=O)N[C@@H](C)C(=O)N[C@@H](Cc1c[nH]c2ccccc12)C(=O)N[C@@H](CC(C)C)C(=O)N[C@H](C(=O)N[C@@H](CCCNC(=N)N)C(=O)NCC(=O)N[C@@H](CCCNC(=N)N)C(=O)N[C@@H](CCCCNC(=O)COCCOCCNC(=O)COCCOCCNC(=O)CC[C@H](NC(=O)[C@H]1CC[C@H](CNC(=O)CCCCCCCCCCCCCCCCCCC(=O)O)CC1)C(=O)O)C(N)=O)C(C)C [Example 8, N-epsilon37-[2-(2-{2-[2-(2-{2-[(S)-4-Carboxy-4-({trans-4-[(19-carboxy-nonadecanoylamino)methyl]cyclohexanecarbonyl}amino)butyrylamino]ethoxy}ethoxy)acetylamino]ethoxy}ethoxy)acetyl][DesaminoHis7,Glu22,Arg26,Arg34,Lys37]GLP-1-(7-37)amide]	0.66 nM	1500 to 2000 nM
CC[C@H](C)[C@H](NC(=O)[C@H](Cc1ccccc1)NC(=O)[C@H](CCC(=O)O)NC(=O)[C@H](CCCNC(=N)N)NC(=O)[C@H](C)NC(=O)[C@H](C)NC(=O)[C@H](CCC(N)=O)NC(=O)[C@H](CCC(=O)O)NC(=O)[C@H](CCC(=O)O)NC(=O)[C@H](CC(C)C)NC(=O)[C@H](Cc1ccc(O)cc1)NC(=O)[C@H](CO)NC(=O)[C@H](CO)NC(=O)[C@@H](NC(=O)[C@H](CC(=O)O)NC(=O)[C@H](CO)NC(=O)[C@@H](NC(=O)[C@H](Cc1ccccc1)NC(=O)[C@@H](NC(=O)CNC(=O)[C@H](CCC(=O)O)NC(=O)[C@H](C)NC(=O)CCc1c[nH]cn1)[C@@H](C)O)[C@@H](C)O)C(C)C)C(=O)N[C@@H](C)C(=O)N[C@@H](Cc1c[nH]c2ccccc12)C(=O)N[C@@H](CC(C)C)C(=O)N[C@H](C(=O)N[C@@H](CCCNC(=N)N)C(=O)NCC(=O)N[C@@H](CCCNC(=N)N)C(=O)N[C@@H](CCCCNC(=O)COCCOCCNC(=O)COCCOCCNC(=O)CC[C@H](NC(=O)[C@H]1CC[C@H](CNC(=O)CCCCCCCCCCCCCCCCCCC(=O)O)CC1)C(=O)O)C(=O)O)C(C)C [Example 9, N-epsilon37-[2-(2-{2-[2-(2-{2-[(S)-4-Carboxy-4-({trans-4-[(19-carboxy-nonadecanoylamino)methyl]cyclohexanecarbonyl}amino)butyrylamino]ethoxy}ethoxy)acetylamino]ethoxy}ethoxy)acetyl][DesaminoHis7,Glu22,Arg26,Arg34,Lys37]GLP-1-(7-37)]	0.5 nM	800 to 1500 nM
CC[C@H](C)[C@H](NC(=O)[C@H](Cc1ccccc1)NC(=O)[C@H](CCC(=O)O)NC(=O)[C@H](CCCNC(=N)N)NC(=O)[C@H](C)NC(=O)[C@H](C)NC(=O)[C@H](CCC(N)=O)NC(=O)[C@H](CCC(=O)O)NC(=O)[C@H](CCC(=O)O)NC(=O)[C@H](CCCCNC(=O)COCCOCCNC(=O)CC[C@H](NC(=O)CC[C@H](NC(=O)CCCCCCCCCCCNC(=O)CCCS(=O)(=O)NC(=O)CCCCCCCCCCCCCCCc1nnn[nH]1)C(=O)O)C(=O)O)NC(=O)[C@H](Cc1ccc(O)cc1)NC(=O)[C@H](CO)NC(=O)[C@H](CO)NC(=O)[C@@H](NC(=O)[C@H](CC(=O)O)NC(=O)[C@H](CO)NC(=O)[C@@H](NC(=O)[C@H](Cc1ccccc1)NC(=O)[C@@H](NC(=O)CNC(=O)[C@H](CCC(=O)O)NC(=O)C(C)(C)NC(=O)[C@@H](N)Cc1c[nH]cn1)[C@@H](C)O)[C@@H](C)O)C(C)C)C(=O)N[C@@H](CCC(=O)O)C(=O)N[C@@H](Cc1c[nH]c2ccccc12)C(=O)N[C@@H](CC(C)C)C(=O)N[C@H](C(=O)N[C@@H](CCCCN)C(=O)NCC(=O)N[C@@H](CCCNC(=N)N)C(=O)N1CCC[C@H]1C(N)=O)C(C)C [Example 11, N-epsilon20-[2-(2-{2-[(S)-4-Carboxy-4-((S)-4-carboxy-4-{12-[4-(16-(1H-tetrazol-5-yl)hexadecanoylsulfamoyl)butyrylamino]dodecanoylamino}butyrylamino)butyrylamino]ethoxy}ethoxy)acetyl][Aib8,Lys20,Glu22,Arg26,Glu30,Pro37]GLP-1-(7-37)amide] (H-H[Aib]EGTFTSDVSSYK([AEEA-γGlu-γGlu-12Ado-X1])EEQAAREFIEWLVKGRP-NH2)	0.61 nM	1 to 100 nM
